We go through five molecules from US7612034B2, “Treatment of subnormal bone mineral density” (Genelabs Technologies, Inc., priority 1999, dated 2009).

Series [1] deals with ovarectomized rats. The conditions noted are these: administration of DHEA to ovarectomized rats; cited from earlier work.
Series [2] concerns systemic lupus erythematous (SLE) patients. Kind of series: Clinical trial data, SLE patients treated with DHEA, BMD. The class given is in vivo, human. The conditions noted are these: DHEA 200 mg daily, alone or in combination with prednisone. The source says:
Its role in fetal physiology is poorly understood, but it is thought to serve as a precursor for other steroids, leading to androgen and estrogenic steroids. […] However, the administration of DHEA to humans to prevent bone loss or increase bone density is not a recognized treatment for osteoporosis/osteopenia by the medical community.

Series [3] is described as follows: Stability of DHEA polymorph preparations under ambient conditions. The class given is physicochemical.
Series [4] can be described thus: Oral uptake and absorption of DHEA polymorph preparations. The conditions noted are these: oral administration.
The test system of series [5] is postmenopausal women with low bone mass. The conditions noted are these: cited from earlier work.
Series [6] relates to Postmenopausal women with osteoporosis. The conditions noted are these: cited from earlier work.
Series [7] has as its system spine bone mineral density (BMD). The conditions noted are these: analysis of 16 studies; chronic calcitonin treatment; cited from earlier work.

Turning to `C[C@]12CC[C@H](O)CC1=CC[C@@H]1[C@@H]2CC[C@]2(C)C(=O)CC[C@@H]12` [DHEA, dehydroepiandrosterone], the bone density entry in series [1] is reported as “increased bone density”. The “improvement of BMD” value in series [2] was “only slight improvement of BMD”.

As to `C[C@]12CC[C@H](O)CC1=CC[C@@H]1[C@@H]2CC[C@]2(C)C(=O)CC[C@@H]12` [DHEA form II, dehydroepiandrosterone], in series [3], the stability entry is recorded as “stable under ambient conditions”. In addition, the rate of absorption entry in series [4] is given as “rapid rate of absorption (greater than the form I polymorph)”.

Consider `NCCCC(O)(P(=O)(O)O)P(=O)(O)O` [alendronate], for which the “increases in BMD compared with calcitonin” value in series [5] (alendronate 10 mg, LS and HT at 6 and 12 months (p<0.001), FN at 12 months (p=0.003)) was “significantly greater increases in BMD than did calcitonin”; in series [6] (alendronate 10 mg, LS and HT at 6 and 12 months (p<0.001), FN at 12 months (p=0.001)) it was “significantly greater increases in BMD than did calcitonin”.

calcitonin: the “BMD changes compared with placebo” value in series [5] (calcitonin 200 IU daily, LS, HT or FN at 6 or 12 months) is listed as “not statistically different from placebo”. The “increases in BMD in total femur and lumbar spine” value in series [5] (up to 1 year of therapy, calcitonin 200 IU daily) is “only modest increases in BMD”. Besides, in series [6] (calcitonin 200 IU daily, FN at 6 (p=0.003) and 12 months (p=0.008)), the “BMD changes compared with placebo at FN” value is on record as “statistically different from placebo”. Besides, the “BMD changes compared with placebo at LS or HT” value in series [6] (calcitonin 200 IU daily, LS or HT at 6 or 12 months) was “not significantly different”. For the same molecule, the “mean increase in spine bone mineral density (BMD)” value in series [7] is 1.97%.

Turning to `C[C@]12CC[C@H](O)CC1=CC[C@@H]1[C@@H]2CC[C@]2(C)C(=O)CC[C@@H]12` [DHEA form I, dehydroepiandrosterone], the stability result in series [3] is “highly stable under ambient conditions”.
